This passage reports MAPKAP-K2 activity results from patent US20060205743A1, “Protein kinase inhibitors” (priority 2003, published 2006).

Molecules are shown by their SMILES.

Chain of MAPKAP-K2 (P49137 whole entry): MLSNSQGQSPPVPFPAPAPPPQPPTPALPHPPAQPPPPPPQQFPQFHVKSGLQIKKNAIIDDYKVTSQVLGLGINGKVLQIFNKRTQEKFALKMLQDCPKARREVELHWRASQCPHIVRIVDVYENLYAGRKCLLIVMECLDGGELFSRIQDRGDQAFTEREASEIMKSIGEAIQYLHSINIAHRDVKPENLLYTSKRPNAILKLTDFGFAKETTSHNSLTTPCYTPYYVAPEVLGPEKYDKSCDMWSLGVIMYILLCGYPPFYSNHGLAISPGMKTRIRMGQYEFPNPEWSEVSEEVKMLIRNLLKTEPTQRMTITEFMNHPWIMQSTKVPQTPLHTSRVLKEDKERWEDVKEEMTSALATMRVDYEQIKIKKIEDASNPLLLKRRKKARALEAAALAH

This experiment concerns the target MAPKAP-K2 (Homo sapiens, UniProt P49137). In words: MAPKAP-Kinase 2 Assay (33P-ATP peptide phosphorylation, filter plate). In kind it is biochemical. On the set-up: key: +: active; ++: more active; +++: very active. To be noted: assays conducted at typically 1-100 μM. How it is done:
MAPKAP-Kinase 2 Assay [Compound Preparation]
Compounds are dissolved in DMSO at a concentration of 3 mM and stored in aliquots at −20° C. Compounds in DMSO from these stock aliquots are diluted in 30% DMSO to produce initial working stock solutions of 1 mM and 3 mM. Both of these stock solutions are then subjected to 1:10 serial dilutions in 30% DMSO in order to prepare 3000, 1000, 300, 100, 30, 10, 3, 1, 0.1, 0.01 μM stock solutions. 5 μl of each stock solution is used per 50 μl reaction to give final assay concentrations of 300, 100, 30, 10, 3, 1, 0.3, 0.1, 0.01, 0.001 μM.
The kinase reaction is conducted in a round-bottomed polypropylene 96-well plate. MAPKAP-K2 is diluted to 25 mU/μl in diluent buffer (50 mM Tris/HCl. pH7.5, 0.1 mM EGTA, 0.1% (v/v) β-mercaptoethanol, 1 mg/ml BSA). 5 μl compound or 30% DMSO is added to each well followed by 25 μl substrate cocktail (10 μM ATP, 30 μM peptide (KKLNRTLSVA), 0.5 μCi ^33P-γ-ATP in 50 mM Tris pH7.5, 0.1 mM EGTA, 10 mM Mg-acetate, 0.1% BME). The reaction is initiated with the addition of 20 μl enzyme solution per well or 20 μl diluent buffer without enzyme. The plate is shaken for 10 sec and then left at room temperature for 30 min. The reaction is terminated with 50 μl 150 mM phosphoric acid. 90 μl of the reaction mixture is then transferred into a 96-well P81 filter plate (Millipore) and incubated at room temperature for 5 min. The filter plate is then washed 4 times with 200 μl 75 mM phosphoric acid per well on a plate vacuum manifold (Millipore) and dried in an oven for 2-3 h. Packard MicroScint ‘0’ (30 μl) is then added to each well, the plate is mixed for 30 min and subjected to liquid scintillation counting on a Packard TopCount.
[Interpretation] %Control=(X−B)/(Tot−B)×100 %Inhibition=100−% Control X=cpm of the test compound wells B=cpm of wells without enzyme Tot=cpm of wells with DMSO vehicle only
For `N[C@H]1CC[C@H](Nc2cc(Nc3ccccc3F)n3nccc3n2)CC1` [Compound 66], the MAPKAP-K2 activity result is recorded as “+++”.
Next, `N[C@H]1CC[C@H](Nc2cc(Nc3cccc(Cl)c3Cl)n3nccc3n2)CC1` [Compound 67]: “+++”.
Take `N[C@H]1CC[C@H](Nc2cc(Nc3cc(Cl)ccc3Cl)n3nccc3n2)CC1` [Compound 68]: the MAPKAP-K2 activity entry is listed as “+++”.
The result for `N[C@H]1CC[C@H](Nc2cc(Nc3c(Cl)cccc3Cl)n3nccc3n2)CC1` [Compound 69] reads “+++”; that for `N[C@H]1CC[C@H](Nc2cc(Nc3ccc(O)cc3)n3nccc3n2)CC1` [Compound 70], “+++”.
In the case of `N[C@H]1CC[C@H](Nc2cc(NCc3ccccc3Cl)n3nccc3n2)CC1` [Compound 71], the MAPKAP-K2 activity entry is “++”.
With `NC1CCCN(c2cc(Nc3ccc(F)c(Cl)c3)n3nccc3n2)C1` (stereo not shown) [Compound 72], the MAPKAP-K2 activity entry is “++”.
Next, `Fc1ccc(Nc2cc(NC3CCNC3)nc3ccnn23)cc1Cl` (stereo not shown) [Compound 73]: “++”; `Fc1ccc(Nc2cc(NC3CCCNC3)nc3ccnn23)cc1Cl` (stereo not shown) [Compound 74]: “+++”.
Next, `Cc1ccc(C)c(Nc2cc(N[C@H]3CC[C@H](N)CC3)nc3ccnn23)c1` [Compound 75]: “+++”; `Cc1cccc(Nc2cc(N[C@H]3CC[C@H](N)CC3)nc3ccnn23)c1C` [Compound 76]: “+++”; `Cc1ccc(Nc2cc(N[C@H]3CC[C@H](N)CC3)nc3ccnn23)cc1C` [Compound 77]: “+++”.
As to `NCCCCNc1cc(Nc2ccc(F)c(Cl)c2)n2nccc2n1` [Compound 78], the MAPKAP-K2 activity entry is on record as “+”.
The result for `N#C/N=C(\N)NC1CCC(Nc2cc(Nc3ccc(F)c(Cl)c3)n3nccc3n2)CC1` (stereo not shown) [Compound 79] reads “++”; that for `CN(CCN)c1cc(Nc2ccc(F)c(Cl)c2)n2nccc2n1` [Compound 80], “+”; that for `Fc1ccc(Nc2cc(N3CCNCC3)nc3ccnn23)cc1Cl` [Compound 81], “+”.
The result for `NC1CCN(c2cc(Nc3ccc(F)c(Cl)c3)n3nccc3n2)C1` (stereo not shown) [Compound 82] reads “+”; that for `N[C@H]1CC[C@H](Nc2cc(Nc3cccc(Br)c3)n3nccc3n2)CC1` [Compound 83], “+++”.
Next, `NC1CCC(Nc2cc(Nc3ccc(Br)cc3)n3nccc3n2)CC1` (stereo not shown) [Compound 84]: “+++”; `NC1CCC(Nc2cc(Nc3ccc(I)cc3)n3nccc3n2)CC1` (stereo not shown) [Compound 85]: “+++”.
Turning to `CNCCNc1cc(Nc2ccc(F)c(Cl)c2)n2nccc2n1` [Compound 86], the MAPKAP-K2 activity result was “++”.
Next, `CN[C@H]1CC[C@H](Nc2cc(Nc3ccc(F)c(Cl)c3)n3nccc3n2)CC1` [Compound 87]: “+++”; `Fc1ccc(Nc2cc(NC3CCNCC3)nc3ccnn23)cc1Cl` [Compound 88]: “++”; `CCN[C@H]1CC[C@H](Nc2cc(Nc3ccc(F)c(Cl)c3)n3nccc3n2)CC1` [Compound 89]: “+++”.
As for `N[C@H]1CC[C@H](Nc2cc(NCc3ccccn3)n3nccc3n2)CC1` [Compound 90], the MAPKAP-K2 activity result is recorded as “++”.
The result for `NC1CCC(Nc2cc(Nc3ccc(C(F)(F)F)cc3Cl)n3nccc3n2)CC1` (stereo not shown) [Compound 91] reads “+++”; that for `NC1CCC(Nc2cc(Nc3ccccc3C(F)(F)F)n3nccc3n2)CC1` (stereo not shown) [Compound 93], “++”; that for `NCCCNc1cc(Nc2ccc(F)c(Cl)c2)n2nccc2n1` [Compound 94], “+”.
The result for `NC1CCN(c2cc(Nc3ccc(F)c(Cl)c3)n3nccc3n2)CC1` [Compound 95] reads “+”; that for `COc1ccccc1Nc1cc(NC2CCCNC2)nc2ccnn12` (stereo not shown) [Compound 96], “++”.
Next, `COc1cccc(Nc2cc(NC3CCCNC3)nc3ccnn23)c1` (stereo not shown) [Compound 97]: “+++”.
`c1ccc(COc2cccc(Nc3cc(NC4CCCNC4)nc4ccnn34)c2)cc1` (stereo not shown) [Compound 98]: the MAPKAP-K2 activity entry was “+++”.
As to `COc1ccc(Cl)c(Nc2cc(NC3CCC(N)CC3)nc3ccnn23)c1` (stereo not shown) [Compound 99], the MAPKAP-K2 activity entry was “+++”.
The result for `NC1CCC(Nc2cc(Nc3ccccc3I)n3nccc3n2)CC1` (stereo not shown) [Compound 101] reads “+++”; that for `NC1CCC(Nc2cc(Nc3ccccc3Br)n3nccc3n2)CC1` (stereo not shown) [Compound 102], “+++”.
On to `COc1ccc(Nc2cc(NC3CCC(N)CC3)nc3ccnn23)c(OC)c1OC` (stereo not shown) [Compound 103], for which the MAPKAP-K2 activity result is recorded as “++”.
Next, `CCCCOc1ccc(Nc2cc(NC3CCC(N)CC3)nc3ccnn23)cc1` (stereo not shown) [Compound 104]: “+++”; `CCOc1cccc(Nc2cc(NC3CCCNC3)nc3ccnn23)c1` (stereo not shown) [Compound 105]: “+++”; `Ic1ccc(Nc2cc(NC3CCCNC3)nc3ccnn23)cc1` (stereo not shown) [Compound 106]: “+++”.
Consider `NC1CCC(Nc2cc(Nc3ccc(OC(F)(F)F)cc3Cl)n3nccc3n2)CC1` (stereo not shown) [Compound 107], for which the MAPKAP-K2 activity result is “+++”.
The result for `NC1CCC(Nc2cc(Nc3ccc(F)cc3Cl)n3nccc3n2)CC1` (stereo not shown) [Compound 108] reads “+++”; that for `NC1CCC(Nc2cc(Nc3c(F)cccc3F)n3nccc3n2)CC1` (stereo not shown) [Compound 109], “+++”; that for `C#CC(C)(C)Nc1cc(NC2CCC(N)CC2)nc2ccnn12` (stereo not shown) [Compound 111], “++”.
With `COc1ccc(Nc2cc(NC3CCC(N)CC3)nc3ccnn23)c(F)c1` (stereo not shown) [Compound 112], the MAPKAP-K2 activity entry is “+++”.
Consider `CC(C)Oc1ccc(Nc2cc(NC3CCC(N)CC3)nc3ccnn23)c(F)c1` (stereo not shown) [Compound 113], for which the MAPKAP-K2 activity entry is on record as “+++”.
On to `COc1ccc(Nc2cc(NC3CCC(N)CC3)nc3ccnn23)c(C)c1` (stereo not shown) [Compound 114], for which the MAPKAP-K2 activity entry is “++”.
The result for `CC(C)=CCCC(C)=CCNc1cc(NC2CCC(N)CC2)nc2ccnn12` (stereo not shown) [Compound 115] reads “+++”; that for `NCCNc1cc(Nc2ccc(F)c(Cl)c2)n2nccc2n1` [Compound 116], “+”.
Next, `Fc1ccc(Nc2cc(NC3CCC(NCc4ccccc4)CC3)nc3ccnn23)cc1Cl` (stereo not shown) [Compound 120]: “+”; `Fc1ccc(Nc2cc(NC3CCC(NCCc4ccccc4)CC3)nc3ccnn23)cc1Cl` (stereo not shown) [Compound 121]: “++”.
The result for `Fc1ccc(Nc2cc(NC3CCC(NCCCc4ccccc4)CC3)nc3ccnn23)cc1Cl` (stereo not shown) [Compound 124] reads “++”; that for `CCCCCNC1CCC(Nc2cc(Nc3ccc(F)c(Cl)c3)n3nccc3n2)CC1` (stereo not shown) [Compound 125], “++”.
`Fc1ccc(Nc2cc(NC3CCC(NCC4CCCCC4)CC3)nc3ccnn23)cc1Cl` (stereo not shown) [Compound 126]: the MAPKAP-K2 activity result is recorded as “+”.
`Fc1ccc(Nc2cc(NC3CCC(NCC4CCOC4)CC3)nc3ccnn23)cc1Cl` (stereo not shown) [Compound 127]: the MAPKAP-K2 activity entry was “++”.
Next, `Fc1ccc(Nc2cc(NC3CCC(NCc4ccoc4)CC3)nc3ccnn23)cc1Cl` (stereo not shown) [Compound 128]: “++”; `Fc1ccc(Nc2cc(NC3CCC(NCc4ccsc4)CC3)nc3ccnn23)cc1Cl` (stereo not shown) [Compound 129]: “++”; `CCC(CC)CNC1CCC(Nc2cc(Nc3ccc(F)c(Cl)c3)n3nccc3n2)CC1` (stereo not shown) [Compound 130]: “+”.
The result for `Fc1ccc(Nc2cc(NC3CCC(NCCCCc4ccccc4)CC3)nc3ccnn23)cc1Cl` (stereo not shown) [Compound 131] reads “++”; that for `Fc1ccc(Nc2cc(NC3CCC(NCCCCCc4ccccc4)CC3)nc3ccnn23)cc1Cl` (stereo not shown) [Compound 132], “++”.
`Fc1ccc(Nc2cc(NC3CCC(NC4CCCCC4)CC3)nc3ccnn23)cc1Cl` (stereo not shown) [Compound 134]: the MAPKAP-K2 activity result is on record as “++”.
Take `CC(C)NC1CCC(Nc2cc(Nc3ccc(F)c(Cl)c3)n3nccc3n2)CC1` (stereo not shown) [Compound 135]: the MAPKAP-K2 activity result is recorded as “++”.
The result for `CN1CCC(N[C@H]2CC[C@H](Nc3cc(Nc4ccc(F)c(Cl)c4)n4nccc4n3)CC2)CC1` [Compound 136] reads “+++”.
Next, `CC(CN(C)C)N[C@H]1CC[C@H](Nc2cc(Nc3ccc(F)c(Cl)c3)n3nccc3n2)CC1` (stereo partly shown) [Compound 137]: “+”.
The result for `Fc1ccc(Nc2cc(N[C@H]3CC[C@H](NC4CCC(c5ccccc5)CC4)CC3)nc3ccnn23)cc1Cl` (stereo partly shown) [Compound 138] reads “+”.
